Results taken from ChEMBL document CHEMBL5113477, “Membrane acting Povarov-Doebner derived compounds potently disperse preformed multidrug resistant Gram-positive bacterial biofilms” (Eur J Med Chem, 2022).
Values after ≈ are worked out from the molar mass of the structure shown.

Key:
Format in all cases: functional
Staphylococcus aureus [1] = test: Antibacterial activity against Staphylococcus aureus ATCC 25923 assessed as reduction in visible bacterial growth incubated for 18 to 20 hrs by CLSI based broth microdilution analysis; details: time 18-20 hrs
Enterococcus faecium [2] = test: Antibacterial activity against vancomycin-resistant Enterococcus faecium ATCC 700221 assessed as reduction in visible bacterial growth incubated for 18 to 20 hrs by CLSI based broth microdilution analysis; details: time 18-20 hrs
Staphylococcus aureus [3] = test: Antibacterial activity against methicillin-resistant Staphylococcus aureus ATCC 33592 assessed as reduction in visible bacterial growth incubated for 18 to 20 hrs by CLSI based broth microdilution analysis; details: time 18-20 hrs
Listeria monocytogenes = test: Antibacterial activity against Listeria monocytogenes ATCC 19115 assessed as reduction in visible bacterial growth incubated for 18 to 20 hrs by CLSI based broth microdilution analysis; details: time 18-20 hrs
Enterococcus faecalis [4] = test: Antibacterial activity against Enterococcus faecalis ATCC 29212 assessed as reduction in visible bacterial growth incubated for 18 to 20 hrs by CLSI based broth microdilution analysis; details: time 18-20 hrs
Enterococcus faecalis [5] = test: Antibacterial activity against vancomycin-resistant Enterococcus faecalis ATCC 51575 assessed as reduction in visible bacterial growth incubated for 18 to 20 hrs by CLSI based broth microdilution analysis; details: time 18-20 hrs
Staphylococcus aureus [6] = test: Antibacterial activity against methicillin-resistant Staphylococcus aureus USA 300 assessed as reduction in visible bacterial growth incubated for 18 to 20 hrs by CLSI based broth microdilution analysis; details: time 18-20 hrs
Staphylococcus aureus [7] = test: Antibacterial activity against methicillin-resistant Staphylococcus aureus USA 300 (ARLG 1561) assessed as reduction in visible bacterial growth incubated for 18 to 20 hrs by CLSI based broth microdilution analysis; details: time 18-20 hrs
Staphylococcus aureus [8] = test: Antibacterial activity against methicillin-resistant Staphylococcus aureus USA 300 (ARLG 1567) assessed as reduction in visible bacterial growth incubated for 18 to 20 hrs by CLSI based broth microdilution analysis; details: time 18-20 hrs
Staphylococcus aureus [9] = test: Antibacterial activity against methicillin-resistant Staphylococcus aureus USA 300 (ARLG 1568) assessed as reduction in visible bacterial growth incubated for 18 to 20 hrs by CLSI based broth microdilution analysis; details: time 18-20 hrs
Staphylococcus aureus [10] = test: Antibacterial activity against methicillin-resistant Staphylococcus aureus USA 300 (ARLG 1569) assessed as reduction in visible bacterial growth incubated for 18 to 20 hrs by CLSI based broth microdilution analysis; details: time 18-20 hrs
Staphylococcus aureus [11] = test: Antibacterial activity against methicillin-resistant Staphylococcus aureus USA 300 (ARLG 1570) assessed as reduction in visible bacterial growth incubated for 18 to 20 hrs by CLSI based broth microdilution analysis; details: time 18-20 hrs
Staphylococcus aureus [12] = test: Antibacterial activity against methicillin-resistant Staphylococcus aureus USA 300 (ARLG 1644) assessed as reduction in visible bacterial growth incubated for 18 to 20 hrs by CLSI based broth microdilution analysis; details: time 18-20 hrs
Staphylococcus aureus [13] = test: Antibacterial activity against methicillin-resistant Staphylococcus aureus USA 300 (ARLG 1649) assessed as reduction in visible bacterial growth incubated for 18 to 20 hrs by CLSI based broth microdilution analysis; details: time 18-20 hrs
Staphylococcus aureus [14] = test: Antibacterial activity against methicillin-resistant Staphylococcus aureus USA 300 (ARLG 1663) assessed as reduction in visible bacterial growth incubated for 18 to 20 hrs by CLSI based broth microdilution analysis; details: time 18-20 hrs
Staphylococcus aureus [15] = test: Antibacterial activity against methicillin-resistant Staphylococcus aureus USA 300 (ARLG 1665) assessed as reduction in visible bacterial growth incubated for 18 to 20 hrs by CLSI based broth microdilution analysis; details: time 18-20 hrs
Enterococcus faecium [16] = test: Antibiofilm activity against vancomycin-resistant Enterococcus faecium ATCC 700221 in TSB broth assessed as dispersal of glucose-induced biofilm preincubated with glucose for 48 hrs followed by compound addition and measured after 24 hrs by crystal violet staining based analysis
Staphylococcus aureus [17] = test: Antibiofilm activity against methicillin-resistant Staphylococcus aureus USA 300 in TSB broth assessed as dispersal of glucose-induced biofilm preincubated with glucose for 48 hrs followed by compound addition and measured after 24 hrs by crystal violet staining based analysis
Enterococcus faecalis [18] = test: Antibiofilm activity against vancomycin-resistant Enterococcus faecalis ATCC 51575 in TSB broth assessed as dispersal of glucose-induced biofilm preincubated with glucose for 48 hrs followed by compound addition and measured after 24 hrs by crystal violet staining based analysis

Work on `Oc1ccc([C@@H]2Nc3c(OC(F)(F)F)cccc3[C@H]3[C@@H]4CC[C@@H](C4)[C@H]32)cc1` yielded an MIC (Staphylococcus aureus [1]) of 4 µg/mL (≈ 10.7 µM).

Work on `Oc1ccc([C@@H]2Nc3ccccc3[C@H]3[C@@H]4CC[C@@H](C4)[C@H]32)cc1` yielded an MIC (Staphylococcus aureus [1]) greater than 16 µg/mL.

In the case of `Oc1ccc([C@@H]2Nc3ccc(C(F)(F)F)cc3[C@H]3[C@@H]4CC[C@@H](C4)[C@H]32)cc1`, the MIC (Enterococcus faecium [2]) is reported as 2 µg/mL (≈ 5.56 µM), the MIC (Staphylococcus aureus [3]) is reported as 2 µg/mL (≈ 5.56 µM) and the MIC (Staphylococcus aureus [1]) is reported as 2 µg/mL (≈ 5.56 µM). The MIC (Listeria monocytogenes) was 2 µg/mL (≈ 5.56 µM), the MIC (Enterococcus faecalis [4]) was 2 µg/mL (≈ 5.56 µM) and the MIC (Enterococcus faecalis [5]) was 2 µg/mL (≈ 5.56 µM). For the same compound, the MIC (Staphylococcus aureus [6]) was 2 µg/mL (≈ 5.56 µM).

With `CN[C@H](CC(C)C)C(=O)N[C@H]1C(=O)N[C@@H](CC(N)=O)C(=O)N[C@H]2C(=O)N[C@H]3C(=O)N[C@H](C(=O)N[C@H](C(=O)O)c4cc(O)cc(O)c4-c4cc3ccc4O)[C@H](O)c3ccc(c(Cl)c3)Oc3cc2cc(c3O[C@@H]2O[C@H](CO)[C@@H](O)[C@H](O)[C@H]2O[C@H]2C[C@](C)(N)[C@H](O)[C@H](C)O2)Oc2ccc(cc2Cl)[C@H]1O` [VANCOMYCIN] the MBC (Staphylococcus aureus [3]) was 1 µg/mL (≈ 0.69 µM), the MBC (Staphylococcus aureus [1]) was 2 µg/mL (≈ 1.38 µM) and the MBC (Listeria monocytogenes) was 2 µg/mL (≈ 1.38 µM). It also gave an MIC (Listeria monocytogenes) of 1 µg/mL (≈ 0.69 µM), an MBC (Enterococcus faecalis [4]) of 2 µg/mL (≈ 1.38 µM) and an MIC (Enterococcus faecalis [4]) of 2 µg/mL (≈ 1.38 µM). It also gave an MBC (Staphylococcus aureus [6]) of 2 µg/mL (≈ 1.38 µM), an MBC (Staphylococcus aureus [7]) of 1 µg/mL (≈ 0.69 µM) and an MBC (Staphylococcus aureus [8]) of 1 µg/mL (≈ 0.69 µM). It also gave an MBC (Staphylococcus aureus [9]) of 1 µg/mL (≈ 0.69 µM), an MBC (Staphylococcus aureus [10]) of 1 µg/mL (≈ 0.69 µM) and an MBC (Staphylococcus aureus [11]) of 2 µg/mL (≈ 1.38 µM). For the same compound, the MBC (Staphylococcus aureus [12]) was 1 µg/mL (≈ 0.69 µM), the MBC (Staphylococcus aureus [13]) was 1 µg/mL (≈ 0.69 µM) and the MBC (Staphylococcus aureus [14]) was 1 µg/mL (≈ 0.69 µM). The MBC (Staphylococcus aureus [15]) was 8 µg/mL (≈ 5.52 µM).

In the case of `Oc1ccc([C@@H]2Nc3ccc(F)cc3[C@H]3[C@@H]4CC[C@@H](C4)[C@H]32)cc1`, the MIC (Staphylococcus aureus [1]) is reported as greater than 16 µg/mL.

`CSc1ccc2c(c1)[C@H]1[C@@H]3CC[C@@H](C3)[C@H]1[C@H](c1ccc(O)cc1)N2` gave an MIC (Staphylococcus aureus [1]) greater than 16 µg/mL.

For `CC(=O)NC[C@H]1CN(c2ccc(N3CCOCC3)c(F)c2)C(=O)O1` [LINEZOLID], the MBC (Enterococcus faecium [2]) was greater than 128 µg/mL, the MIC (Enterococcus faecium [2]) was 1 µg/mL (≈ 2.96 µM) and the MBC (Staphylococcus aureus [3]) was 64 µg/mL (≈ 190 µM). The MBC (Staphylococcus aureus [1]) was 64 µg/mL (≈ 190 µM), the MIC (Listeria monocytogenes) was 2 µg/mL (≈ 5.93 µM) and the MBC (Enterococcus faecalis [4]) was 64 µg/mL (≈ 190 µM). The MBC (Enterococcus faecalis [5]) was greater than 128 µg/mL, the MBC (Staphylococcus aureus [6]) was 128 µg/mL (≈ 379 µM) and the MBC (Staphylococcus aureus [7]) was 64 µg/mL (≈ 190 µM). For the same compound, the MIC (Staphylococcus aureus [7]) was 1 µg/mL (≈ 2.96 µM), the MBC (Staphylococcus aureus [8]) was greater than 64 µg/mL and the MIC (Staphylococcus aureus [8]) was 1 µg/mL (≈ 2.96 µM). It also gave an MBC (Staphylococcus aureus [9]) greater than 64 µg/mL, an MIC (Staphylococcus aureus [9]) of 1 µg/mL (≈ 2.96 µM) and an MBC (Staphylococcus aureus [10]) of 64 µg/mL (≈ 190 µM). It also gave an MIC (Staphylococcus aureus [10]) of 1 µg/mL (≈ 2.96 µM), an MBC (Staphylococcus aureus [11]) of 64 µg/mL (≈ 190 µM) and an MIC (Staphylococcus aureus [11]) of 1 µg/mL (≈ 2.96 µM). It also gave an MBC (Staphylococcus aureus [12]) greater than 64 µg/mL, an MIC (Staphylococcus aureus [12]) of 1 µg/mL (≈ 2.96 µM) and an MBC (Staphylococcus aureus [13]) greater than 64 µg/mL. It also gave an MIC (Staphylococcus aureus [13]) of 1 µg/mL (≈ 2.96 µM), an MBC (Staphylococcus aureus [14]) greater than 64 µg/mL and an MIC (Staphylococcus aureus [14]) of 1 µg/mL (≈ 2.96 µM). The MBC (Staphylococcus aureus [15]) was greater than 64 µg/mL and the MIC (Staphylococcus aureus [15]) was 1 µg/mL (≈ 2.96 µM).

In the case of `Oc1ccc([C@@H]2Nc3ccc(SC(F)(F)F)cc3[C@H]3[C@@H]4CC[C@@H](C4)[C@H]32)cc1`, the MIC (Enterococcus faecium [2]) is reported as 2 µg/mL (≈ 5.11 µM), the MIC (Staphylococcus aureus [3]) is reported as 2 µg/mL (≈ 5.11 µM) and the MIC (Staphylococcus aureus [1]) is reported as 2 µg/mL (≈ 5.11 µM). It also gave an MIC (Listeria monocytogenes) of 2 µg/mL (≈ 5.11 µM), an MIC (Enterococcus faecalis [4]) of 2 µg/mL (≈ 5.11 µM) and an MIC (Enterococcus faecalis [5]) of 2 µg/mL (≈ 5.11 µM). It also gave an MIC (Staphylococcus aureus [6]) of 2 µg/mL (≈ 5.11 µM).

`FS(F)(F)(F)(F)c1ccc2c(c1)[C@H]1[C@@H]3CC[C@@H](C3)[C@H]1[C@H](c1ccccc1)N2` gave an MIC (Staphylococcus aureus [1]) greater than 16 µg/mL.

`Oc1cccc([C@@H]2Nc3ccc(S(F)(F)(F)(F)F)cc3[C@H]3[C@@H]4CC[C@@H](C4)[C@H]32)c1` gave an MIC (Staphylococcus aureus [1]) of 4 µg/mL (≈ 9.58 µM).

Work on `Oc1ccc([C@@H]2Nc3ccc(OC(F)F)cc3[C@H]3[C@@H]4CC[C@@H](C4)[C@H]32)cc1` yielded an MIC (Staphylococcus aureus [1]) of 8 µg/mL (≈ 22.4 µM).

Compound `Oc1c(Cl)cc(Cl)cc1Sc1cc(Cl)cc(Cl)c1O` [BITHIONOL] has an MBEC (Enterococcus faecium [16]) of 8 µg/mL, an MBEC (Staphylococcus aureus [17]) of 8 µg/mL and an MBEC (Enterococcus faecalis [18]) of 8 µg/mL.
